{"source": "ChEMBL document CHEMBL1129258", "about": "“Synthesis and structure-activity relationships of 2-pyridones: a novel series of potent DNA gyrase inhibitors as antibacterial agents” (J Med Chem, 1996)", "data": [{"test_system": "Enterococcus faecalis", "experiment": "Inhibitory activity against enterococcus faecalis Van B", "type": "functional", "details": "not given", "units": {"MIC": "µg/mL"}, "values": [{"smiles": "Cc1c(N2CCC(N(C)C)C2)c(F)cn2c(=O)c(C(=O)O)cc(C3CC3)c12", "note": "(centres undefined)", "MIC": 0.12}]}, {"target": "T1, DNA gyrase (Escherichia coli) (UniProt P0AES6+P0AES4)", "experiment": "In vivo efficacy against Escherichia coli JUHL after oral administration", "type": "functional, organism-based", "details": "Escherichia coli K-12", "units": {"ED50": "mg/kg"}, "values": [{"smiles": "NC1CCN(c2nc3c(-c4ccc(F)cc4F)cc(C(=O)O)c(=O)n3cc2F)C1", "note": "(centres undefined)", "ED50": 5.6}]}, {"test_system": "Escherichia coli", "experiment": "In vivo efficacy against Escherichia coli JUHL by orally administered.", "type": "functional", "details": "po", "units": {"ED50": "mg/kg"}, "values": [{"smiles": "Cc1c(N2CCC(N(C)C)C2)c(F)cn2c(=O)c(C(=O)O)cc(C3CC3)c12", "note": "(centres undefined)", "ED50": "> 10"}]}, {"target": "T1, DNA gyrase (Escherichia coli)", "experiment": "In vivo efficacy against Escherichia coli JUHL by subcutaneous administration", "type": "functional, organism-based", "details": "Escherichia coli K-12", "units": {"ED50": "mg/kg"}, "values": [{"smiles": "Cc1c(N2CCC(N(C)C)C2)c(F)cn2c(=O)c(C(=O)O)cc(C3CC3)c12", "note": "(centres undefined)", "ED50": 1.9}, {"smiles": "NC1CCN(c2nc3c(-c4ccc(F)cc4F)cc(C(=O)O)c(=O)n3cc2F)C1", "note": "(centres undefined)", "ED50": 1}]}, {"target": "T1, DNA gyrase (Escherichia coli)", "experiment": "In vitro antibacterial activity against gram-negative organism […] ATCC 13048", "type": "functional", "details": "Enterobacter aerogenes", "units": {"MIC": "µg/mL"}, "values": [{"smiles": "Cc1c(N2CCC(N(C)C)C2)c(F)cn2c(=O)c(C(=O)O)cc(C3CC3)c12", "note": "(centres undefined)", "MIC": 0.1}, {"smiles": "NC1CCN(c2nc3c(-c4ccc(F)cc4F)cc(C(=O)O)c(=O)n3cc2F)C1", "note": "(centres undefined)", "MIC": 0.05}]}, {"test_system": "Enterococcus faecium", "experiment": "Inhibitory activity against enterococcus faecium Van A", "type": "functional", "details": "not given", "units": {"MIC": "µg/mL"}, "values": [{"smiles": "Cc1c(N2CCC(N(C)C)C2)c(F)cn2c(=O)c(C(=O)O)cc(C3CC3)c12", "note": "(centres undefined)", "MIC": 1}]}, {"target": "T1, DNA gyrase (Escherichia coli)", "experiment": "In vitro antibacterial against gram-negative organism Escherichia coli JUHL", "type": "functional", "details": "Escherichia coli K-12", "units": {"MIC": "µg/mL"}, "values": [{"smiles": "Cc1c(N2CCC(N(C)C)C2)c(F)cn2c(=O)c(C(=O)O)cc(C3CC3)c12", "note": "(centres undefined)", "MIC": 0.02}, {"smiles": "NC1CCN(c2nc3c(-c4ccc(F)cc4F)cc(C(=O)O)c(=O)n3cc2F)C1", "note": "(centres undefined)", "MIC": 0.02}]}, {"target": "T1, DNA gyrase (Escherichia coli)", "experiment": "In vitro antibacterial activity against gram-negative organism Klebsiella pneumoniae ATCC 8045", "type": "functional", "details": "not given", "units": {"MIC": "µg/mL"}, "values": [{"smiles": "Cc1c(N2CCC(N(C)C)C2)c(F)cn2c(=O)c(C(=O)O)cc(C3CC3)c12", "note": "(centres undefined)", "MIC": 0.02}, {"smiles": "NC1CCN(c2nc3c(-c4ccc(F)cc4F)cc(C(=O)O)c(=O)n3cc2F)C1", "note": "(centres undefined)", "MIC": 0.02}]}, {"test_system": "not listed separately", "experiment": "In vivo efficacy against Pseudomonas aeruginosa 5007 after subcutaneous administration", "type": "functional", "details": "Pseudomonas aeruginosa, sc; read-out: ED50", "units": {"ED50": "mg/kg"}, "values": [{"smiles": "NC1CCN(c2nc3c(-c4ccc(F)cc4F)cc(C(=O)O)c(=O)n3cc2F)C1", "note": "(centres undefined)", "ED50": 10.3}]}, {"target": "T1, DNA gyrase (Escherichia coli)", "experiment": "In vitro antibacterial activity against gram-negative organism Prov. stuartii CMX-640", "type": "functional", "details": "Providencia stuartii", "units": {"MIC": "µg/mL"}, "values": [{"smiles": "Cc1c(N2CCC(N(C)C)C2)c(F)cn2c(=O)c(C(=O)O)cc(C3CC3)c12", "note": "(centres undefined)", "MIC": 3.1}, {"smiles": "NC1CCN(c2nc3c(-c4ccc(F)cc4F)cc(C(=O)O)c(=O)n3cc2F)C1", "note": "(centres undefined)", "MIC": 1.56}]}, {"test_system": "not listed separately", "experiment": "In vitro antibacterial activity against gram-negative organism Pseudomonas aeruginosa 5007", "type": "functional", "details": "Pseudomonas aeruginosa; read-out: MIC", "units": {"MIC": "µg/mL"}, "values": [{"smiles": "Cc1c(N2CCC(N(C)C)C2)c(F)cn2c(=O)c(C(=O)O)cc(C3CC3)c12", "note": "(centres undefined)", "MIC": 0.39}, {"smiles": "NC1CCN(c2nc3c(-c4ccc(F)cc4F)cc(C(=O)O)c(=O)n3cc2F)C1", "note": "(centres undefined)", "MIC": 0.39}]}, {"test_system": "not listed separately", "experiment": "In vitro antibacterial activity against gram-negative organism Pseudomonas aeruginosa DPHD-2862", "type": "functional", "details": "Pseudomonas aeruginosa; read-out: MIC", "units": {"MIC": "µg/mL"}, "values": [{"smiles": "Cc1c(N2CCC(N(C)C)C2)c(F)cn2c(=O)c(C(=O)O)cc(C3CC3)c12", "note": "(centres undefined)", "MIC": 12.5}, {"smiles": "NC1CCN(c2nc3c(-c4ccc(F)cc4F)cc(C(=O)O)c(=O)n3cc2F)C1", "note": "(centres undefined)", "MIC": 100}]}, {"target": "T2, DNA gyrase (Staphylococcus aureus) (UniProt P0A0K8+P20831)", "T2 sequence (P0A0K8 2-644 limits assumed)": "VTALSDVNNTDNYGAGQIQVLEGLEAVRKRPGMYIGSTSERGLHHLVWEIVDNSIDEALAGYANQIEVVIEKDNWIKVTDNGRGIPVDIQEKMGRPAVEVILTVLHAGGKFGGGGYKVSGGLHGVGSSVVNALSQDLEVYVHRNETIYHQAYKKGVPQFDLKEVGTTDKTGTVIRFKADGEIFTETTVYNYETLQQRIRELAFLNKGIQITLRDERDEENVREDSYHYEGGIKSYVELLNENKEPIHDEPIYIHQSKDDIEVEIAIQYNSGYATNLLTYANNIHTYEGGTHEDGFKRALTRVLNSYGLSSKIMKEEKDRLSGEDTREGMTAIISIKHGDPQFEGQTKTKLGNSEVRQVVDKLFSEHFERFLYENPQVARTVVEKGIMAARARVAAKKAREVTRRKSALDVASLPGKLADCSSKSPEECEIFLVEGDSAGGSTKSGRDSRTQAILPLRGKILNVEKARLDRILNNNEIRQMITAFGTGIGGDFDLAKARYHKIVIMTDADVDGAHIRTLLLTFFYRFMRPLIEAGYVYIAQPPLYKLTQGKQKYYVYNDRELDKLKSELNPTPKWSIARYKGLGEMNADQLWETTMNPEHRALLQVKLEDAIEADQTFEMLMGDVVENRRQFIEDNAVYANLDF", "T2 sequence (P20831 whole entry partner)": "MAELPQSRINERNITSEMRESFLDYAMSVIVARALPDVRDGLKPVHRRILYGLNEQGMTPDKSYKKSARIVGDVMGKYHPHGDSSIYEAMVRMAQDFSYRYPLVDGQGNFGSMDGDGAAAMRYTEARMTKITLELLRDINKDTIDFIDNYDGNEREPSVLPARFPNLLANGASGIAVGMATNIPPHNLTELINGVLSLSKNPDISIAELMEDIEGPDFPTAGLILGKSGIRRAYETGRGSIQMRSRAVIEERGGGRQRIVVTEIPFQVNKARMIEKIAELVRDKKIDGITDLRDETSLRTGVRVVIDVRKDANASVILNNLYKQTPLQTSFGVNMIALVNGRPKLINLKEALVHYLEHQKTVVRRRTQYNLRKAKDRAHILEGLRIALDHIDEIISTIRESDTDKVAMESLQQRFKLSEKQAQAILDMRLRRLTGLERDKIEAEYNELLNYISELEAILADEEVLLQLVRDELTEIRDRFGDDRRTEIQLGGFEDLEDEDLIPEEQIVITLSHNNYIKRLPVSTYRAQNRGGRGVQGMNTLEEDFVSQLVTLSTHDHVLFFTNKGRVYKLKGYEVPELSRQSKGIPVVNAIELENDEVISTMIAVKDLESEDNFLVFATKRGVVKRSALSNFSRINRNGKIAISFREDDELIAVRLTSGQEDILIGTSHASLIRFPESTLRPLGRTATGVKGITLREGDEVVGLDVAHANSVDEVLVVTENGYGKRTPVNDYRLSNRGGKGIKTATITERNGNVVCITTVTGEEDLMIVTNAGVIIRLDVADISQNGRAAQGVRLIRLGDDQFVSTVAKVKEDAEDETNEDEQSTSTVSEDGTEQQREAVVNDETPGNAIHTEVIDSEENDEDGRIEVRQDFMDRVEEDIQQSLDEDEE", "experiment": "In vitro antibacterial activity against gram-positive organism Staphylococcus aureus 1775", "type": "functional", "details": "not given", "units": {"MIC": "µg/mL"}, "values": [{"smiles": "Cc1c(N2CCC(N(C)C)C2)c(F)cn2c(=O)c(C(=O)O)cc(C3CC3)c12", "note": "(centres undefined)", "MIC": 0.78}, {"smiles": "NC1CCN(c2nc3c(-c4ccc(F)cc4F)cc(C(=O)O)c(=O)n3cc2F)C1", "note": "(centres undefined)", "MIC": "> 100"}]}, {"target": "T2, DNA gyrase (Staphylococcus aureus)", "experiment": "In vitro antibacterial activity against gram-positive organism Staphylococcus aureus ATCC 6538p", "type": "functional", "details": "not given", "units": {"MIC": "µg/mL"}, "values": [{"smiles": "Cc1c(N2CCC(N(C)C)C2)c(F)cn2c(=O)c(C(=O)O)cc(C3CC3)c12", "note": "(centres undefined)", "MIC": 0.05}, {"smiles": "NC1CCN(c2nc3c(-c4ccc(F)cc4F)cc(C(=O)O)c(=O)n3cc2F)C1", "note": "(centres undefined)", "MIC": 0.1}]}, {"target": "T2, DNA gyrase (Staphylococcus aureus)", "experiment": "In vitro antibacterial activity against gram-positive organism Staphylococcus aureus NCTC-10649M", "type": "functional", "details": "not given", "units": {"MIC": "µg/mL"}, "values": [{"smiles": "Cc1c(N2CCC(N(C)C)C2)c(F)cn2c(=O)c(C(=O)O)cc(C3CC3)c12", "note": "(centres undefined)", "MIC": 0.05}, {"smiles": "NC1CCN(c2nc3c(-c4ccc(F)cc4F)cc(C(=O)O)c(=O)n3cc2F)C1", "note": "(centres undefined)", "MIC": 0.1}]}, {"target": "T1, DNA gyrase (Escherichia coli)", "experiment": "In vitro antibacterial activity against gram-positive organism Streptococcus bovis A-5169", "type": "functional", "details": "Streptococcus equinus", "units": {"MIC": "µg/mL"}, "values": [{"smiles": "Cc1c(N2CCC(N(C)C)C2)c(F)cn2c(=O)c(C(=O)O)cc(C3CC3)c12", "note": "(centres undefined)", "MIC": 0.39}, {"smiles": "NC1CCN(c2nc3c(-c4ccc(F)cc4F)cc(C(=O)O)c(=O)n3cc2F)C1", "note": "(centres undefined)", "MIC": 1.56}]}, {"test_system": "Streptococcus pneumoniae", "experiment": "(§1) In vivo efficacy against Strep. administration", "type": "functional", "details": "not given", "units": {"ED50": "mg/kg"}, "values": [{"smiles": "Cc1c(N2CCC(N(C)C)C2)c(F)cn2c(=O)c(C(=O)O)cc(C3CC3)c12", "note": "(centres undefined)", "ED50": "> 25"}]}, {"target": "T2, DNA gyrase (Staphylococcus aureus)", "experiment": "In vivo efficacy against Staphylococcus aureus NCTC-10649M after oral administration", "type": "functional, organism-based", "details": "not given", "units": {"ED50": "mg/kg"}, "values": [{"smiles": "Cc1c(N2CCC(N(C)C)C2)c(F)cn2c(=O)c(C(=O)O)cc(C3CC3)c12", "note": "(centres undefined)", "ED50": 25}, {"smiles": "NC1CCN(c2nc3c(-c4ccc(F)cc4F)cc(C(=O)O)c(=O)n3cc2F)C1", "note": "(centres undefined)", "ED50": 12}]}, {"target": "T2, DNA gyrase (Staphylococcus aureus)", "experiment": "In vivo efficacy against Staphylococcus aureus NCTC-10649M after subcutaneous administration", "type": "functional, organism-based", "details": "not given", "units": {"ED50": "mg/kg"}, "values": [{"smiles": "Cc1c(N2CCC(N(C)C)C2)c(F)cn2c(=O)c(C(=O)O)cc(C3CC3)c12", "note": "(centres undefined)", "ED50": 4.7}, {"smiles": "NC1CCN(c2nc3c(-c4ccc(F)cc4F)cc(C(=O)O)c(=O)n3cc2F)C1", "note": "(centres undefined)", "ED50": 4.4}]}, {"test_system": "Streptococcus pyogenes", "experiment": "In vitro antibacterial activity against gram-positive organism Streptococcus pyogenes EES61", "type": "functional", "details": "Streptococcus pyogenes; read-out: MIC", "units": {"MIC": "µg/mL"}, "values": [{"smiles": "Cc1c(N2CCC(N(C)C)C2)c(F)cn2c(=O)c(C(=O)O)cc(C3CC3)c12", "note": "(centres undefined)", "MIC": 0.1}, {"smiles": "NC1CCN(c2nc3c(-c4ccc(F)cc4F)cc(C(=O)O)c(=O)n3cc2F)C1", "note": "(centres undefined)", "MIC": 0.39}]}, {"target": "T1, DNA gyrase (Escherichia coli)", "experiment": "In vitro antibacterial activity against gram-positive organism Enterococcus faecium ATCC 8043", "type": "functional", "details": "not given", "units": {"MIC": "µg/mL"}, "values": [{"smiles": "Cc1c(N2CCC(N(C)C)C2)c(F)cn2c(=O)c(C(=O)O)cc(C3CC3)c12", "note": "(centres undefined)", "MIC": 0.1}]}, {"test_system": "Streptococcus pneumoniae", "experiment": "as §1", "type": "functional", "details": "not given", "units": {"ED50": "mg/kg"}, "values": [{"smiles": "Cc1c(N2CCC(N(C)C)C2)c(F)cn2c(=O)c(C(=O)O)cc(C3CC3)c12", "note": "(centres undefined)", "ED50": 44.1}]}, {"target": "T1, DNA gyrase (Escherichia coli)", "experiment": "not given", "details": "Escherichia coli K-12", "units": {"CC50": "µg/mL"}, "values": [{"smiles": "NC1CCN(c2nc3c(-c4ccc(F)cc4F)cc(C(=O)O)c(=O)n3cc2F)C1", "note": "(centres undefined)", "CC50": 0.5}]}, {"test_system": "Pseudomonas aeruginosa", "experiment": "In vivo efficacy against Pseudomonas aeruginosa 5007 following p.o. administration.", "details": "not given", "units": {"ED50": "mg/kg"}, "values": [{"smiles": "NC1CCN(c2nc3c(-c4ccc(F)cc4F)cc(C(=O)O)c(=O)n3cc2F)C1", "note": "(centres undefined)", "ED50": 42.1}]}, {"test_system": "Enterococcus faecium", "experiment": "In vitro antibacterial activity against gram-positive organism Enterococcus faecium ATCC 8043", "details": "not given", "units": {"MIC": "µg/mL"}, "values": [{"smiles": "NC1CCN(c2nc3c(-c4ccc(F)cc4F)cc(C(=O)O)c(=O)n3cc2F)C1", "note": "(centres undefined)", "MIC": 0.78}]}]}
